Literature values in US9265822B2 (priority 2009, dated 2016).

System: 2009 H1N1 swine flu virus

Structure (SMILES)	effectiveness against the 2009 "swine" flu
CC(=O)N[C@H]1[C@H]([C@H](O)[C@H](O)CO)OC(C(=O)O)=C[C@@H]1N=C(N)N [zanamivir]	effective
CCOC(=O)C1=C[C@@H](OC(CC)CC)[C@H](NC(C)=O)[C@@H](N)C1 [oseltamivir]	effective
CC(N)C12CC3CC(CC(C3)C1)C2 (stereo not shown) [rimantadine]	not proven effect
NC12CC3CC(CC(C3)C1)C2 [amantadine]	not proven effect
